Laboratory results from patent US7304046B2, “Phosphoramide compounds” (priority 1999, dated 2007).
pIC50: −log10 of the molar value.

How the values were obtained:
BE cells = assay: Test A: in vitro cytotoxicity, clonogenic survival of BE cells; type: cell-based; details: 2 h drug treatment, colonies after 10 days, concentration at which there is a 1% cell survival
From the text: (§1) Test A: In Vitro Cytotoxicity (Clonogenic Survival of HT-29 and BE Cells):
(§2) The human colon carcinoma cell line HT-29 was obtained from the American Type Culture Collection (ATCC), and the BE cell line was provided by Dr. D. Ross, University of Colorado. A modification of the procedure described by Miribelli et al Cancer Research, 1985, 45, 32–39 was used to determine the clonogenic survival of the cells. HT-29 and BE cells in exponential growth were suspended in unsupplemented Eagles MEM medium (10 mL) at a final density of 1.7–2×10^5 cells/mL. Unsupplemented medium contains Minimum Essential Medium (Gibco) and HEPES (0.02 M). The drug stock solutions (0.1–40 mM) were prepared using either ethanol or dimethyl sulfoxide as solvent. The maximum amount of DMSO or ethanol used in the drug treatments was 1% of the total volume. Appropriate volumes (6.5 to 100 μL) of the drug stock solution were added to five vials of the cell suspensions, to give five different final drug concentrations, and 100 μL of solvent was added to a sixth vial for a control. The treated cells were incubated for 2 h (37° C., 5% CO2). The cells were spun down and rinsed three times with supplemented medium (3 mL) and then diluted in 5 mL of supplemented medium. Supplemented medium is prepared by adding Fetal Bovine Serum (10%), gentamicin (0.05 mg/mL), L-glutamine (0.03 mg/mL), and sodium pyruvate (0.1 mM) to unsupplemented medium. The cells were counted using a Coulter Counter and then plated at 2–3 different densities for each drug concentration and incubated for 10 days. The colonies were stained with 0.5% crystal violet in 95% ethanol and those colonies comprised of 50 or more cells were counted using a microscope and pen-style counter. The LC99 of each compound (the concentration at which there is a 1% cell survival) was determined by plotting the log surviving fraction vs. drug concentration.

PaCa-2 (pancreas) = assay: Growth inhibition, MTT assay, PaCa-2; type: cell-based, human; details: PaCa-2, 72-h drug exposure, read-out: IC50 growth inhibitory activity
Description: (§3) The growth inhibitory properties of representative compounds of the invention were also determined by evaluating their growth inhibitory activity against a series of human tumor cell lines using a 72-h drug exposure. Cell counts were measured using the MTT assay.

A549 (lung) = assay: Growth inhibition, MTT assay, A549; type: cell-based, human; details: A549, 72-h drug exposure, read-out: IC50 growth inhibitory activity
Description: as §3

PC-3 (prostate) = assay: Growth inhibition, MTT assay, PC-3; type: cell-based, human; details: PC-3, 72-h drug exposure, read-out: IC50 growth inhibitory activity
Description: as §3

HT-29 (colon) = assay: Growth inhibition, MTT assay, HT-29; type: cell-based, human; details: HT-29, 72-h drug exposure, read-out: IC50 growth inhibitory activity
Description: as §3

IGROV (ovarian) = assay: Growth inhibition, MTT assay, IGROV; type: cell-based, human; details: 72-h drug exposure, read-out: IC50 growth inhibitory activity
Description: as §3

UMUC3 (bladder) = assay: Growth inhibition, MTT assay, UMUC3; type: cell-based, human; details: UMUC3, 72-h drug exposure, read-out: IC50 growth inhibitory activity
Description: as §3

A498 (kidney) = assay: Growth inhibition, MTT assay, A498; type: cell-based, human; details: A498, 72-h drug exposure, read-out: IC50 growth inhibitory activity
Description: as §3

[1] = system: A4982LM cell line, a sub-line of the A498 human kidney carcinoma; assay: Xenograft model, human tumor cells subcutaneously in nude mice; type: in vivo; details: Day 38, single dose of 25 mg/kg subcutaneously
Description: The cytotoxic properties of a compound of the invention can also be determined using in vivo pharmacological models which are well known to the art. For example, compound 16a was tested in a xenograft model. This assay consisted of injecting nude mice subcutaneously with human tumor cells. The tumors were allowed to grow until a measurable mass was present (22 days), and a single dose of 16a was administered subcutaneously. The tumor size was measured periodically and the growth inhibition of the tumor was determined. The A4982LM cell line, a sub-line of the A498 human kidney carcinoma, was used for the xenograft assay. The A4982LM sub-line, which has a high DT-diaphorase level (1010 nmol cytochrome c reduced/min/mg protein), was developed by implanting the A498 cell line in mice and collecting the lung metastases that formed from the original tumor.

human tumor cell lines = assay: Growth inhibition, MTT assay, series of human tumor cell lines (all cell lines); type: cell-based; details: all cell lines of Table 2, 72-h drug exposure
Description: as §3

[2] = Nucleophilic activation with sodium dimethyldithiocarbamate (DDTC) monitored by 31P NMR; type: physicochemical; details: DDTC 3 equiv, 3:4 THF:0.4 M cacodylate buffer, pH ~7.3, RT
Description: The quinone was dissolved in CH3CN (0.3 mL, or THF for 16a) and the activating agent (glutathione, or sodium dithionite) was dissolved in cacodylate buffer (0.4 mL, 0.4 M, pH 7.7). The buffer solution was added to the organic solution and the pH of the mixture was adjusted to ˜7.4. The reaction mixture was transferred to a 5-mm NMR tube, and the data acquisition was started (pulse delay 30 μs). Spectra were taken every 2.5 minutes for 0.5 h, then every 5 min for 0.5 h, then every 10 min for 1 h, and time points for each spectrum were assigned from the initiation of the reaction. Chemical shifts are reported relative to the TPPO reference. The temperature of the probe was maintained at 37° C., if necessary, using the Bruker variable temperature unit. The relative concentrations of the intermediates were determined by measuring the peak areas.
The Michael addition of sulfur nucleophiles to naphthoquinones is well known; and addition to the 3-position of the quinone might provide another pathway for phosphorodiamidate anion release. Two possible products could be predicted from the Michael addition of a nucleophile to the naphthoquinone. […] Activation of 16a with DDTC (3 equiv, 3:4 THF:0.4 M cacodylate buffer, pH˜7.3, RT) was monitored using ^31P NMR. […]

MDA231 (breast) = assay: Growth inhibition, MTT assay, MDA231; type: cell-based, human; details: MDA231, 72-h drug exposure, read-out: IC50 growth inhibitory activity
Description: as §3

HT-29 cells = assay: Test A: in vitro cytotoxicity, clonogenic survival of HT-29 cells; type: cell-based, human; details: 2 h drug treatment, colonies after 10 days, concentration at which there is a 1% cell survival
From the text: as §1, §2

NP(=O)(OCC1=CC(=O)c2ccccc2C1=O)N(CCBr)CCBr (stereo not shown) [Compound 16a, 2-(1,4-Naphthoquinonyl)methyl N,N-bis(2-bromoethyl) phosphorodiamidate]
LC99 (BE cells): 4.6 µM | pIC50 (PaCa-2 (pancreas)): 5.35 | pIC50 (A549 (lung)): 5.34 | pIC50 (PC-3 (prostate)): 5.04 | pIC50 (HT-29 (colon)): 4.82 | pIC50 (IGROV (ovarian)): 4.72 | pIC50 (UMUC3 (bladder)): 5.55 | pIC50 (A498 (kidney)): 4.81 | growth inhibition of the tumor [1]: 40% | IC50 in words, against all cell lines (human tumor cell lines): low micromolar range | time until quinone resonance disappeared and was replaced by phosphorodiamidate anion resonance [2]: ≤ 5 min | pIC50 (MDA231 (breast)): 4.83 | LC99 (HT-29 cells): 7.8 µM
